Measurements: patent publication EP4782453A1 (Beyang Therapeutics Co., Ltd., priority 2023, dated 2025)
Read-outs that look alike come from different tables or passages of the source.

Columns and labels:
Menin-MLL = molecular target: T1, Menin-MLL (Homo sapiens, UniProt O00255); assay: Inhibitory activity against Menin-MLL binding (fluorescence polarization); details: 150 nM His-Menin, 15 nM FITC-MLL, 25°C for 60 min
T1 construct: His-Menin (M1-L615 end); purchased BIORTUS BP9210
T1 sequence (O00255 1-615 isoform O00255-1): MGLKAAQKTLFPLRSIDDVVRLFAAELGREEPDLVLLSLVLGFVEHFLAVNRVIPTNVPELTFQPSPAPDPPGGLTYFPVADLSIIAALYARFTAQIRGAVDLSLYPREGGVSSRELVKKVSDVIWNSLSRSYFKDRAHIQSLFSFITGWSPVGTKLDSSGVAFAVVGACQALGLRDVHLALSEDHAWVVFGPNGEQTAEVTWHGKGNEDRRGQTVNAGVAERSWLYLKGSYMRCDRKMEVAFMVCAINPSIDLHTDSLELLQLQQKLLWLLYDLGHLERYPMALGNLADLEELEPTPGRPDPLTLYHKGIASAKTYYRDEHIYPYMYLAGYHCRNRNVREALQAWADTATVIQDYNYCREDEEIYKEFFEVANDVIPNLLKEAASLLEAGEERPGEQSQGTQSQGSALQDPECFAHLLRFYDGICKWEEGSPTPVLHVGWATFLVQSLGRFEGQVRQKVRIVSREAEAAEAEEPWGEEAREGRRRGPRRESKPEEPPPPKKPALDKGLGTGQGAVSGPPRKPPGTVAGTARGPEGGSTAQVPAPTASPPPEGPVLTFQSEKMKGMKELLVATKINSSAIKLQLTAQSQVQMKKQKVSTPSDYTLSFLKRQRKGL
Outline: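 Fluorescence polarization competition: compound and 150 nM His-tagged menin (residues M1-L615) sit 15 min at 25 °C in pH 7.5 HEPES buffer with NaCl, DTT and BSA; 15 nM FITC-labelled MLL peptide then binds for 60 min. IC50 fitted sigmoidally from mP values, duplicate wells.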

[1] = system: MOLM-13 (carrying MLL-AF9); assay: Inhibition of proliferation of human tumor cells (Alamar Blue, 7 days), MOLM-13; format: cell-based; details: MOLM-13 cells (carrying MLL-AF9), method calls the value GI50
From the text: Experimental Example 2: Evaluation of Inhibitory Activity of Compounds Against Proliferation of Human Tumor Cells
• Human acute lymphoblastic leukemia cells MV-4-11, purchased from American Type Culture Collection, Catalog Number: CRL-9591; • Human acute myeloid leukemia cells MOLM-13, purchased from COBIOER BIOSCIENCES CO., LTD, Catalog Number: CBP60678; • Human acute myeloid leukemia cells KG-1a, purchased from American Type Culture Collection, Catalog Number: CCL-246.1; • Inverted Microscope, purchased from Olympus Tokyo; • Countess™ Automated Cell Counter, purchased from Invitrogen, Model: C10281; and • Multilabel Reader, purchased from Bio-Tek, Model: Synergy HT.
MV-4-11 cells were cultured in an IMDM medium containing 10% fetal bovine serum, KG-a cells were cultured in an IMDM medium containing 20% fetal bovine serum, or MOLM-13 cells were cultured in an RPMI-1640 medium containing 20% fetal bovine serum, each supplemented with 100 U·mL^-1 penicillin and 100 µg·mL^-1 streptomycin. These cells were cultured at 37°C with 5% CO2. The suspensions of individual cell lines were prepared in their respective media and seeded into 96-well plates at a density of 4,000 cells/well for MV-4-11 and MOLM-13 cells, or 3,000 cells/well for KG-1a cells. On the day of the experiment, a compound stock solution was diluted in a 3-fold or 4-fold gradient using DMSO. Each gradient-diluted stock solution was then further diluted 250-fold with a complete medium to prepare a series of working solutions at different concentrations. Subsequently, 100 µL of working solution (containing a 2-fold concentration series of the test compound) was added to each well, with duplicate wells set up for each concentration.
Seven days after compound addition (on Day 7), an Alamar Blue assay reagent (MCE, HY-111391 / CS-0040317) was added to measure the fluorescence intensity in each well. Wells containing the cells in the growth medium supplemented with 0.1% DMSO (Day 7) served as high-read control wells. The readouts from the wells containing the cells in the growth medium supplemented with 0.1% DMSO on the day of compound addition (Day 0) served as low-reading control well. GraphPad Prism software was used to calculate the concentration required to inhibit 50% of cell proliferation (GI50), which serves as a cell proliferation inhibition activity index.

[2] = fluorescence polarization, read-out: Menin-MLL IC50

## CCN(C(=O)c1cc(F)ccc1-c1cc(C2CN([C@H](CCCN3C4COCC3C4)C(C)C)C2)cc2c1cnn2C)C(C)C [Example 426]
Menin-MLL; [2]
  IC50: 3.2 nM
[1]; Homo sapiens, 168 h
  IC50: 30 nM

## CCN(C(=O)c1cc(F)ccc1-c1cc(C2CN([C@H](CC[C@H]3COCCN3)C(C)C)C2)cn2c(C)ncc12)C(C)C [Example 457-2, N-ethyl-5-fluoro-2-(3-methyl-6-{1-[(3R)-4-methyl-1-[(3S)-morpholin-3-yl]pentan-3-yl]azacyclobutan-3-yl}imidazo[1,5-a]pyridin-8-yl)-N-(isopropyl)benzamide]
Menin-MLL; [2]
  IC50: 2.6 nM
[1]; Homo sapiens, 168 h
  IC50: 5 nM

## CCN(C(=O)c1cc(F)ccc1-c1cc(C2CN([C@H](CCCN3CCN(CCC#N)CC3)C(C)C)C2)cn2c(C)ncc12)C(C)C [Example 489]
Menin-MLL; [2]
  IC50: 2 nM
[1]; Homo sapiens, 168 h
  IC50: 5.9 nM

## Cc1ncc2c(-c3ccc(F)cc3C(=O)N(C)C(C)C)cc(C3CN([C@H](CCCN4CCN(CCO)CC4)C(C)C)C3)cn12 [Example 448-2]
Menin-MLL; [2]
  IC50: 2.2 nM
[1]; Homo sapiens, MOLM-13, 168 h
  IC50: 13 nM

## CCN(C(=O)c1cc(F)ccc1-c1cc(C2CN([C@H](CCCN3CCC(OCCO)CC3)C(C)C)C2)cc2c1cnn2C)C(C)C [Example 401-2]
Menin-MLL; [2]
  IC50: 3.7 nM
[1]; Homo sapiens, 168 h
  IC50: 29 nM

## CCN(C(=O)c1cc(F)ccc1-c1cc(C2CN([C@H](CCCN3CCN(CCF)CC3)C(C)C)C2)cc2c1cnn2C)C(C)C [Example 410]
Menin-MLL; [2]
  IC50: 5.8 nM
[1]; Homo sapiens, 168 h
  IC50: 37 nM

## CCC(=O)NC1CCN(CCC[C@H](C(C)C)N2CC(c3cc(-c4ccc(F)cc4C(=O)N(CC)C(C)C)c4cnc(C)n4c3)C2)CC1 [Example 425]
Menin-MLL; [2]
  IC50: 2.7 nM
[1]; Homo sapiens, 168 h
  IC50: 9.9 nM

## CCN(C(=O)c1cc(F)ccc1-c1cc(C2CN([C@H](CCCN3CCN(C)[C@H](COC)C3)C(C)C)C2)cn2c(C)ncc12)C(C)C [Example 509]
Menin-MLL; [2]
  IC50: 1.1 nM
[1]; Homo sapiens, 168 h
  IC50: 7.2 nM

## CCN1CCN(CCC[C@H](C(C)C)N2CC(c3cc(-c4ccc(F)cc4C(=O)N4CCOC[C@H]4C)c4cnn(C)c4c3)C2)CC1 [Example 359]
Menin-MLL; [2]
  IC50: 6 nM
[1]; Homo sapiens, 168 h
  IC50: 66 nM

## CCN(C(=O)c1cc(F)ccc1-c1cc(C2CN([C@H](CCCN3CCNCC3)C(C)C)C2)cn2c(C)ncc12)C(C)C [Example 472]
Menin-MLL; [2]
  IC50: 1.5 nM
[1]; Homo sapiens, 168 h
  IC50: 24 nM

## Cc1ncc2c(-c3ccc(F)cc3C(=O)N3CCOC[C@H]3C)cc(C3CN([C@H](CCCN4CCN(CC(F)(F)F)CC4)C(C)C)C3)cn12 [Example 385]
Menin-MLL; [2]
  IC50: 4.7 nM
[1]; Homo sapiens, 168 h
  IC50: 8.1 nM

## CCN(C(=O)c1cc(F)ccc1-c1cc(C2CN([C@H](CCCN3CCOC[C@H]3CO)C(C)C)C2)cn2c(C)ncc12)C(C)C [Example 453]
Menin-MLL; [2]
  IC50: 5.3 nM
[1]; Homo sapiens, 168 h
  IC50: 22 nM

## CCN(C(=O)c1cc(F)ccc1-c1cc(C2CN([C@H](CC[C@@H]3COCCN3)C(C)C)C2)cn2c(C)ncc12)C(C)C [Example 449-1, N-ethyl-5-fluoro-2-(3-methyl-6-{1-[(3R)-4-methyl-1-[(3R)-morpholin-3-yl]pentan-3-yl]azacyclobutan-3-yl}imidazo[1,5-a]pyridin-8-yl)-N-(isopropyl)benzamide]
Menin-MLL; [2]
  IC50: 2.6 nM
[1]; Homo sapiens, 168 h
  IC50: 6.1 nM

## CCN(C(=O)c1cc(F)ccc1-c1cc(C2CN([C@H](CCCN3CCC(S(C)(=O)=O)CC3)C(C)C)C2)cc2c1cnn2C)C(C)C [Example 406]
Menin-MLL; [2]
  IC50: 7 nM
[1]; Homo sapiens, 168 h
  IC50: 37 nM

## CCN(C(=O)c1cc(F)ccc1-c1cc(C2CN(C(CCCN3CCNC(CC#N)C3)C(C)C)C2)cn2c(C)ncc12)C(C)C (stereo not shown) [Example 499]
Menin-MLL; Menin-MLL IC50, fluorescence polarization
  IC50: 2.1 nM
[1]
  IC50: 29 nM

## CCN(C(=O)c1cc(F)ccc1-c1cc(C2CN([C@H](CCCN3CCN(CCO)CC3)C(C)C)C2)cc2c1cnn2C)C(C)C [Example 400-2]
Menin-MLL; [2]
  IC50: 3.7 nM
[1]; Homo sapiens, 168 h
  IC50: 12 nM

## CCN(C(=O)c1cc(F)ccc1-c1cc(C2CN([C@H](CCCN3CC4(C3)CN(C(C)=O)C4)C(C)C)C2)cn2c(C)ncc12)C(C)C [Example 393]
Menin-MLL; [2]
  IC50: 2.2 nM
[1]; Homo sapiens, 168 h
  IC50: 16 nM

## COC[C@@H]1CN(CCC[C@H](C(C)C)N2CC(c3cc(-c4ccc(F)cc4C(=O)N(C(C)C)C(C)C)c4cnc(C)n4c3)C2)CCN1 [Example 505-2]
Menin-MLL; [2]
  IC50: 1 nM
[1]; Homo sapiens, 168 h
  IC50: 9.9 nM

## CCN(C(=O)c1cc(F)ccc1-c1cc(C2CN([C@H](CCCN3CCO[C@@H](CO)C3)C(C)C)C2)cn2c(C)ncc12)C(C)C [Example 451]
Menin-MLL; [2]
  IC50: 4.7 nM
[1]; Homo sapiens, 168 h
  IC50: 25 nM

## Cc1nc(F)c2c(-c3ccc(F)cc3C(=O)N3CCOC[C@H]3C)cc(C3CN([C@H](CCCN4CCN(CCF)CC4)C(C)C)C3)cn12 [Example 361]
Menin-MLL; [2]
  IC50: 5.2 nM
[1]; Homo sapiens, 168 h
  IC50: 3.3 nM

## CCN(C(=O)c1cc(F)ccc1-c1cc(C2CN([C@H](CCCN3CCO[C@H](CO)C3)C(C)C)C2)cn2c(C)ncc12)C(C)C [Example 450]
Menin-MLL; [2]
  IC50: 5.2 nM
[1]; Homo sapiens, 168 h
  IC50: 21 nM

## Cc1nc(F)c2c(-c3ccc(F)cc3C(=O)N3CCOC[C@H]3C)cc(C3CN([C@H](CCCN4CCN(S(C)(=O)=O)CC4)C(C)C)C3)cn12 [Example 365]
Menin-MLL; [2]
  IC50: 8.5 nM
[1]; Homo sapiens, 168 h
  IC50: 14 nM

## CCN(C(=O)c1cc(F)ccc1-c1cc(C2CN([C@H](CCCN3CCN(C[C@H](O)CO)CC3)C(C)C)C2)cc2c1cnn2C)C(C)C [Example 412]
Menin-MLL; [2]
  IC50: 6.8 nM
[1]; Homo sapiens, 168 h
  IC50: 39 nM

## Cc1ncc2c(-c3ccc(F)cc3C(=O)N3CCOC[C@H]3C)cc(C3CN([C@H](CCCN4CCN(CC(F)F)CC4)C(C)C)C3)cn12 [Example 364]
Menin-MLL; [2]
  IC50: 5.1 nM
[1]; Homo sapiens, 168 h
  IC50: 3.9 nM

## CCN(C(=O)c1cc(F)ccc1-c1cc(C2CN([C@H](CCCN3CCC(S(C)(=O)=O)CC3)C(C)C)C2)cn2c(C)ncc12)C(C)C [Example 404]
Menin-MLL; [2]
  IC50: 2.3 nM
[1]; Homo sapiens, 168 h
  IC50: 8.1 nM

## Cc1nc(F)c2c(-c3ccc(F)cc3C(=O)N3CCOC[C@H]3C)cc(C3CN([C@H](CCCN4CC5(COC5)C4)C(C)C)C3)cn12 [Example 369]
Menin-MLL; [2]
  IC50: 3.8 nM
[1]; Homo sapiens, 168 h
  IC50: 3 nM

## CCN(C(=O)c1cc(F)ccc1-c1cc(C2CN([C@H](CCCN3CCN(CCO)CC34COC4)C(C)C)C2)cn2c(C)ncc12)C(C)C [Example 482, N-ethyl-5-fluoro-2-(6-{1-[(3R)-6-[8-(2-hydroxyethyl)-2-oxa-5,8-diazaspiro[3.5]non-5-yl]-2-methylhexan-3-yl]azacyclobutan-3-yl}-3-methylimidazo[1,5-a]pyridin-8-yl)-N-(isopropyl)benzamide]
Menin-MLL; [2]
  IC50: 2.4 nM
[1]; Homo sapiens, 168 h
  IC50: 36 nM

## Cc1ncc2c(-c3ccc(F)cc3C(=O)N(C)C(C)C)cc(C3CN(C(CCCN4CCN(C)CC4)C(C)C)C3)cn12 (stereo not shown) [Example 436, 5-fluoro-N-methyl-2-(3-methyl-6-{1-[2-methyl-6-(4-methylpiperazin-1-yl)hexan-3-yl]azacyclobutan-3-yl}imidazo[1,5-a]pyridin-8-yl)-N-(isopropyl)benzamide]
Menin-MLL; [2]
  IC50: 8.3 nM
[1]; Homo sapiens, 168 h
  IC50: 42 nM

## CCN(C(=O)c1cc(F)ccc1-c1cc(C2CN(C(CCO)C(C)C)C2)cn2c(C)ncc12)C(C)C (stereo not shown) [Example 455, N-ethyl-5-fluoro-2-{6-[1-(1-hydroxyl-4-methylpentan-3-yl)azacyclobutan-3-yl]-3-methylimidazo[1,5-a]pyridin-8-yl}-N-(isopropyl)benzamide]
Menin-MLL; [2]
  IC50: 9.4 nM
[1]; Homo sapiens, 168 h
  IC50: 69 nM
